ChEMBL document CHEMBL1138554, “Synthesis and QSAR evaluation of 2-(substituted phenyl)-1H-benzimidazoles and [2-(substituted phenyl)-benzimidazol-1-yl]-pyridin-3-yl-methanones” (Eur J Med Chem, 2009)

Key:
Candida albicans = experiment: Antifungal activity against Candida albicans at 37 degC after 48 hrs by tube dilution method; assay type: functional; design: unit not given here
Bacillus subtilis = experiment: Antimicrobial activity against Bacillus subtilis at 37 degC after 24 hrs by tube dilution method; assay type: functional; design: unit not given here
Escherichia coli = experiment: Antimicrobial activity against Escherichia coli at 37 degC after 24 hrs by tube dilution method; assay type: functional; design: unit not given here
Aspergillus niger = experiment: Antifungal activity against Aspergillus niger at 25 degC after 7 days by tube dilution method; assay type: functional; design: unit not given here
Staphylococcus aureus = experiment: Antimicrobial activity against Staphylococcus aureus at 37 degC after 24 hrs by tube dilution method; assay type: functional; design: unit not given here
[1] = Octanol-water partition coefficient, log P of the compound; assay type: physicochemical

| Structure (SMILES) | -logMIC (Candida albicans) | -logMIC (Bacillus subtilis) | -logMIC (Escherichia coli) | -logMIC (Aspergillus niger) | -logMIC (Staphylococcus aureus) | logP [1] |
| --- | --- | --- | --- | --- | --- | --- |
| c1ccc(-c2nc3ccccc3[nH]2)cc1 | 1.49 | 1.68 | 1.72 | 1.49 | 1.46 | 3.11 |
| O=C(O)c1ccccc1-c1nc2ccccc2[nH]1 | 1.48 | 1.7 | 1.7 | 1.28 | 1.5 | 2.81 |
| COc1ccccc1-c1nc2ccccc2n1C(=O)c1cccnc1 | 1.72 | 1.42 | 1.6 | 1.42 | 1.42 | 3.93 |
| COc1ccccc1-c1nc2ccccc2[nH]1 | 1.25 | 1.71 | 1.65 | 1.35 | 1.5 | 2.86 |
| OC(Cn1cncn1)(Cn1cncn1)c1ccc(F)cc1F [FLUCONAZOLE] | 2.64 | – | 3.33 | 2.64 | – | – |
| O=C(O)c1cn(C2CC2)c2cc(N3CCNCC3)c(F)cc2c1=O [CIPROFLOXACIN] | – | 3.33 | – | – | 3.33 | – |
| Clc1ccc(-c2nc3ccccc3[nH]2)cc1 | 1.56 | 1.51 | 1.66 | 1.4 | 1.66 | 3.63 |
| O=C(c1cccnc1)n1c(-c2ccccc2[N+](=O)[O-])nc2ccccc21 | 1.74 | 1.5 | 1.5 | 1.44 | 1.5 | 4.13 |
| O=[N+]([O-])c1cccc(-c2nc3ccccc3[nH]2)c1 | 1.58 | 1.72 | 1.41 | 1.58 | 1.47 | 3.07 |
| Clc1cccc(-c2nc3ccccc3[nH]2)c1 | 1.26 | 1.49 | 1.65 | 1.36 | 1.49 | 3.63 |
| Oc1ccc(-c2nc3ccccc3[nH]2)cc1 | 1.43 | 1.79 | 1.7 | 1.33 | 1.53 | 2.83 |
| O=C(c1cccnc1)n1c(-c2ccc(Cl)cc2)nc2ccccc21 | 1.73 | 1.43 | 1.73 | 1.43 | 1.73 | 4.7 |
| O=C(O)c1ccccc1-c1nc2ccccc2n1C(=O)c1cccnc1 | 1.74 | 1.44 | 1.44 | 1.44 | 1.44 | 4.13 |
| O=C(c1cccnc1)n1c(-c2ccccc2Cl)nc2ccccc21 | 1.73 | 1.43 | 1.65 | 1.43 | 1.73 | 4.7 |
| O=[N+]([O-])c1ccccc1-c1nc2ccccc2[nH]1 | 1.58 | 1.73 | 1.35 | 1.58 | 1.17 | 3.07 |
| O=C(c1cccnc1)n1c(-c2ccc([N+](=O)[O-])cc2)nc2ccccc21 | 1.74 | 1.44 | 1.44 | 1.44 | 1.44 | 4.13 |
| O=C(c1cccnc1)n1c(-c2ccc(O)cc2)nc2ccccc21 | 1.7 | 1.57 | 1.8 | 1.4 | 1.7 | 3.89 |
| O=C(c1cccnc1)n1c(-c2cccc(Cl)c2)nc2ccccc21 | 1.73 | 1.5 | 1.8 | 1.43 | 1.79 | 4.7 |
| O=[N+]([O-])c1ccc(-c2nc3ccccc3[nH]2)cc1 | 1.58 | 1.78 | 1.2 | 1.58 | 1.01 | 3.07 |
| O=C(c1cccnc1)n1c(-c2cccc([N+](=O)[O-])c2)nc2ccccc21 | 1.74 | 1.44 | 1.44 | 1.44 | 1.44 | 4.13 |
| Clc1ccccc1-c1nc2ccccc2[nH]1 | 1.26 | 1.49 | 1.49 | 1.26 | 1.4 | 3.63 |
